Experimental data reported in patent publication US20060116390A1, “Hepatitis c virus inhibitors” (priority 2003, published 2006).
pIC50: −log10 of the molar value. Like-named read-outs stand apart in the source and are kept apart here.

System: HCV proteins in Rep5.1 cells (replicon cell line)
Assay: Inhibitory activity of HCV: cell-based ELISA in replicon cell line Rep5.1 (decrease of HCV proteins)
Design: species or system hepatitis C virus
Outline: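 HCV protein loss was quantified by ELISA on methanol/acetone-fixed cells 72 h after drug addition, probing with selected HCV-positive human plasma, and IC50 was defined as 50% reduction relative to untreated wells. The cells were Rep5.1 replicon cells cultured in DMEM-10 with 500 μg/ml G418, plated at 5000 per well and dosed with serial dilutions after 4 h attachment.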

[1] = Hepatitis C virus, 72 h, Rep5.1 cells, 72 hours with drug, concentration at which 50% of HCV proteins was decreased, Table 2, read-out: IC50
[2] = Hepatitis C virus, 72 h, Rep5.1 cells, 72 hours with drug, decrease of HCV proteins measured by HCV antibody, Table 1, read-out: Level (IC50 values classified)
[3] = Rep5.1 cells, 72 hours with drug, concentration at which 50% of HCV proteins was decreased, Table 2, read-out: IC50

COCCN(C)c1ccc(CCOC(=O)C2=C(C)NC(=S)NC2)cc1 [Compound 209, 6-methyl-2-thioxo-1,2,3,4-tetrahydro-pyrimidine-5-carboxylic acid 2-{4-[(2-methoxy-ethyl)-methyl-amino]-phenyl}-ethyl ester]
pIC50 [1]: > 6.40 | pIC50 [2]: > 6.00

CC1=C(C(=O)OC(C)(C)c2ccccc2)CNC(=S)N1 [Compound 27, 6-methyl-2-thioxo-1,2,3,4-tetrahydro-pyrimidine-5-carboxylic acid 1-methyl-1-phenyl-ethyl ester]
pIC50 [1]: 4.33 | pIC50 [2]: < 4.70

CC1=C(C(=O)OCc2cccc(C(F)(F)F)c2)CNC(=S)N1 [Compound 101, 6-methyl-2-thioxo-1,2,3,4-tetrahydro-pyrimidine-5-carboxylic acid 3-trifluoromethyl-benzyl ester]
pIC50 [1]: > 6.40 | pIC50 [2]: > 6.00

CC1=C(C(=O)OCCc2ccc(N3CCCCC3)c([N+](=O)[O-])c2)C(CO)NC(=S)N1 (stereo not shown) [100″, 4-Hydroxymethyl-6-methyl-2-thioxo-1,2,3,4-tetrahydro-pyrimidine-5-carboxylic acid 2-(3-nitro-4-piperidin-1-yl-phenyl)-ethyl ester]
pIC50 [1]: 6.05 | pIC50 [2]: > 6.00

CC1=C(C(=O)OCCc2cccc(Cl)c2)C(CF)NC(=S)N1 (stereo not shown) [70′, 4-fluoromethyl-6-methyl-2-thioxo-1,2,3,4-tetrahydro-pyrimidine-5-carboxylic acid 2-(3-chloro-phenyl)-ethyl ester]
pIC50 [1]: 6.00 | pIC50 [2]: > 6.00

CC1=C(C(=O)OCCc2ccoc2)CNC(=S)N1 [Compound 254, 6-methyl-2-thioxo-1,2,3,4-tetrahydro-pyrimidine-5-carboxylic acid 2-furan-3-yl-ethyl ester]
pIC50 [1]: 5.52 | pIC50 [2]: 5.00 to 6.00

CC1=C(C(=O)OCc2cc3ccsc3s2)CNC(=S)N1 [Compound 235, 6-methyl-2-thioxo-1,2,3,4-tetrahydro-pyrimidine-5-carboxylic acid thieno[2,3-b]thiophen-2-ylmethyl ester]
pIC50 [1]: 6.05 | pIC50 [2]: > 6.00

CC1=C(C(=O)OCCCc2ccc(F)cc2)C(CF)NC(=S)N1 (stereo not shown) [56′, 4-fluoromethyl-6-methyl-2-thioxo-1,2,3,4-tetrahydro-pyrimidine-5-carboxylic acid 3-(4-fluorophenyl)-propyl ester]
pIC50 [1]: 5.62 | pIC50 [2]: 5.00 to 6.00

CC1=C(C(=O)OCCCc2ccsc2)C(CF)NC(=S)N1 (stereo not shown) [53′, 4-fluoromethyl-6-methyl-2-thioxo-1,2,3,4-tetrahydro-pyrimidine-5-carboxylic acid 3-thiophen-3-yl-propyl ester]
pIC50 [1]: 4.74 | pIC50 [2]: 4.70 to 5.00

CC1=C(C(=O)OCCCc2sccc2C)C(CO)NC(=S)N1 (stereo not shown) [17″, 4-hydroxymethyl-6-methyl-2-thioxo-1,2,3,4-tetrahydro-pyrimidine-5-carboxylic acid 3-(3-methyl-thiophen-2-yl)-propyl ester]
pIC50 [1]: 5.05 | pIC50 [2]: 5.00 to 6.00

CC1=C(C(=O)OCCc2c(F)cccc2F)C(CF)NC(=S)N1 (stereo not shown) [75′, 4-fluoromethyl-6-methyl-2-thioxo-1,2,3,4-tetrahydro-pyrimidine-5-carboxylic acid 2-(2,6-difluoro-phenyl)-ethyl ester]
pIC50 [1]: 5.59 | pIC50 [2]: 5.00 to 6.00

CC1=C(C(=O)OCCCn2c(=O)sc3ccccc32)C(CF)NC(=S)N1 (stereo not shown) [48′, 4-fluoromethyl-6-methyl-2-thioxo-1,2,3,4-tetrahydro-pyrimidine-5-carboxylic acid 3-(2-oxo-benzothiazol-3-yl)-propyl ester]
pIC50 [1]: 4.68 | pIC50 [2]: < 4.70

CC1=C(C(=O)OCCCc2ccco2)C(CF)NC(=S)N1 (stereo not shown) [Compound 270, 4-fluoromethyl-6-methyl-2-thioxo-1,2,3,4-tetrahydro-pyrimidine-5-carboxylic acid 3-furan-2-yl-propyl ester]
pIC50 [1]: 5.30 | pIC50 [2]: 5.00 to 6.00

COc1ccccc1CCCOC(=O)C1=C(C)NC(=S)NC1 [Compound 104, 6-methyl-2-thioxo-1,2,3,4-tetrahydro-pyrimidine-5-carboxylic acid 3-(2-methoxy-phenyl)-propyl ester]
pIC50 [1]: > 6.40 | pIC50 [2]: > 6.00

CC1=C(C(=O)OCCCc2ccsc2F)C(CO)NC(=S)N1 (stereo not shown) [13″, 4-hydroxymethyl-6-methyl-2-thioxo-1,2,3,4-tetrahydro-pyrimidine-5-carboxylic acid 3-(2-fluoro-thiophen-3-yl)-propyl ester]
pIC50 [1]: 5.28 | pIC50 [2]: 5.00 to 6.00

CC1=C(C(=O)OCCc2ccc(C)c(Cl)c2)C(CO)NC(=S)N1 (stereo not shown) [74″, 4-hydroxymethyl-6-methyl-2-thioxo-1,2,3,4-tetrahydro-pyrimidine-5-carboxylic acid 2-(3-chloro-4-methyl-phenyl)-ethyl ester]
pIC50 [1]: > 6.40 | pIC50 [2]: > 6.00

CC1=C(C(=O)OCC2CCCC2)CNC(=S)N1 [Compound 68, 6-methyl-2-thioxo-1,2,3,4-tetrahydro-pyrimidine-5-carboxylic acid cyclopentylmethyl ester]
pIC50 [1]: 6.15 | pIC50 [2]: > 6.00

CC1=C(C(=O)OCC2=CCC3CC2C3(C)C)CNC(=S)N1 (stereo not shown) [Compound 97, 6-methyl-2-thioxo-1,2,3,4-tetrahydro-pyrimidine-5-carboxylic acid 6,6-dimethyl-bicyclo[3.1.1]hept-2-en-2-ylmethyl ester]
pIC50 (Hepatitis C virus, 72 h): > 6.40 | pIC50 (Hepatitis C virus, 72 h, read-out: Level (IC50 values classified)): > 6.00

CC1=C(C(=O)OCc2cc3c(cc2[N+](=O)[O-])OCO3)CNC(=S)N1 [Compound 140, 6-methyl-2-thioxo-1,2,3,4-tetrahydro-pyrimidine-5-carboxylic acid 6-nitro-benzo[1,3]dioxol-5-ylmethyl ester]
pIC50 [1]: 4.89 | pIC50 [2]: 4.70 to 5.00

CC1=C(C(=O)OCCc2cccc(Cl)c2)CNC(=S)N1 [Compound 117, 6-methyl-2-thioxo-1,2,3,4-tetrahydro-pyrimidine-5-carboxylic acid 2-(3-chloro-phenyl)-ethyl ester]
pIC50 [1]: 6.40 | pIC50 [2]: > 6.00

CCCCCCC#CCCOC(=O)C1=C(C)NC(=S)NC1 [Compound 200, 6-methyl-2-thioxo-1,2,3,4-tetrahydro-pyrimidine-5-carboxylic acid dec-3-inyl ester]
pIC50 [3]: > 6.40

CCCC1=C(C(=O)OCc2ccccc2)CNC(=S)N1 [Compound 25, 6-propyl-2-thioxo-1,2,3,4-tetrahydro-pyrimidine-5-carboxylic acid benzyl ester]
pIC50 [1]: 5.70 | pIC50 [2]: 5.00 to 6.00

COc1ccc(Cl)cc1CCOC(=O)C1=C(C)NC(=S)NC1CF (stereo not shown) [84′, 4-fluoromethyl-6-methyl-2-thioxo-1,2,3,4-tetrahydro-pyrimidine-5-carboxylic acid 2-(5-chloro-2-methoxy-phenyl)-ethyl ester]
pIC50 [1]: 6.05 | pIC50 [2]: > 6.00

COc1ccc(OC)c(COC(=O)C2=C(C)NC(=S)NC2)c1 [Compound 174, 6-methyl-2-thioxo-1,2,3,4-tetrahydro-pyrimidine-5-carboxylic acid 2,5-dimethoxy-benzyl ester]
pIC50 [1]: 5.15 | pIC50 [2]: 5.00 to 6.00

CC1=C(C(=O)OCC#Cc2ccccc2)C(CO)NC(=S)N1 (stereo not shown) [40″, 4-hydroxymethyl-6-methyl-2-thioxo-1,2,3,4-tetrahydro-pyrimidine-5-carboxylic acid 3-phenyl-prop-2-inyl ester]
pIC50 [3]: < 4.00

CC1=C(C(=O)OCc2cccs2)CNC(=S)N1 [Compound 153, 6-methyl-2-thioxo-1,2,3,4-tetrahydro-pyrimidine-5-carboxylic acid thiophen-2-ylmethyl ester]
pIC50 [1]: 5.57 | pIC50 [2]: 5.00 to 6.00

CC1=C(C(=O)OCc2ccc(F)cc2Cl)C(CO)NC(=S)N1 (stereo not shown) [48″, 4-hydroxymethyl-6-methyl-2-thioxo-1,2,3,4-tetrahydro-pyrimidine-5-carboxylic acid 2-chloro-4-fluoro-benzyl ester]
pIC50 [1]: 4.37 | pIC50 [2]: < 4.70

CC1=C(C(=O)OCc2ccc(Cl)cc2)CNC(=S)N1 [Compound 43, 6-methyl-2-thioxo-1,2,3,4-tetrahydro-pyrimidine-5-carboxylic acid 4-chloro-benzyl ester]
pIC50 [1]: > 6.40 | pIC50 [2]: > 6.00

CCOc1ccccc1CCOC(=O)C1=C(C)NC(=S)NC1 [Compound 273, 6-methyl-2-thioxo-1,2,3,4-tetrahydro-pyrimidine-5-carboxylic acid 2-(2-ethoxy-phenyl)-ethyl ester]
pIC50 [1]: 6.10 | pIC50 [2]: > 6.00

CC1=C(C(=O)OCCc2ccc(N3CC=CC3)c([N+](=O)[O-])c2)C(CO)NC(=S)N1 (stereo not shown) [101″, 4-Hydroxymethyl-6-methyl-2-thioxo-1,2,3,4-tetrahydro-pyrimidine-5-carboxylic acid 2-[4-(2,5-dihydro-pyrrol-1-yl)-3-nitro-phenyl]-ethyl ester]
pIC50 [1]: 5.92 | pIC50 [2]: 5.00 to 6.00

CC1=C(C(=O)OCc2cc(C)on2)CNC(=S)N1 [47′, 6-methyl-2-thioxo-1,2,3,4-tetrahydro-pyrimidine-5-carboxylic acid 5-methyl-isoxazol-3-ylmethyl ester]
pIC50 [1]: 4.00 | pIC50 [2]: < 4.70

CCOc1ccccc1CCOC(=O)C1=C(C)NC(=S)NC1CF (stereo not shown) [Compound 274, 4-fluoromethyl-6-methyl-2-thioxo-1,2,3,4-tetrahydro-pyrimidine-5-carboxylic acid 2-(2-ethoxy-phenyl)-ethyl ester]
pIC50 [1]: < 4.00 | pIC50 [2]: < 4.70

CC1=C(C(=O)OCCc2c(F)cccc2Cl)C(CO)NC(=S)N1 (stereo not shown) [59″, 4-hydroxymethyl-6-methyl-2-thioxo-1,2,3,4-tetrahydro-pyrimidine-5-carboxylic acid 2-(2-chloro-6-fluoro-phenyl)-ethyl ester]
pIC50 [1]: 5.60 | pIC50 [2]: 5.00 to 6.00
